The nature of data set [1]: Selectivity ratio of IC50 for recombinant human GABA receptor to IC50 for housefly GABA receptor.
The next data set relates to Musca domestica. The data set is described as follows: Insecticidal activity against topically-treated Musca domestica (house fly). The settings on record: topical. In kind it is ADME, organism-based.
Data set [2] is described as follows: Toxicity in ip dosed Mus musculus (mouse). Type of data set: organism-based. Conditions: in vivo.
Data set [3] in a line: Inhibition of recombinant Homo sapiens (human) GABA receptor.
Data set [4] concerns the target Gamma-aminobutyric acid receptor subunit rho-1 (Homo sapiens, UniProt P24046). In words: Displacement of [3H]EBOB from recombinant Homo sapiens (human) GABA rho1 receptor. (In a radioligand displacement assay an active substance lowers the binding of a labelled ligand.)
The target of data set [5] is T1, Gamma-aminobutyric acid receptor subunit alpha-1/ beta-1 (Homo sapiens, UniProt P14867+P18505).
T1 sequence (P14867 whole entry): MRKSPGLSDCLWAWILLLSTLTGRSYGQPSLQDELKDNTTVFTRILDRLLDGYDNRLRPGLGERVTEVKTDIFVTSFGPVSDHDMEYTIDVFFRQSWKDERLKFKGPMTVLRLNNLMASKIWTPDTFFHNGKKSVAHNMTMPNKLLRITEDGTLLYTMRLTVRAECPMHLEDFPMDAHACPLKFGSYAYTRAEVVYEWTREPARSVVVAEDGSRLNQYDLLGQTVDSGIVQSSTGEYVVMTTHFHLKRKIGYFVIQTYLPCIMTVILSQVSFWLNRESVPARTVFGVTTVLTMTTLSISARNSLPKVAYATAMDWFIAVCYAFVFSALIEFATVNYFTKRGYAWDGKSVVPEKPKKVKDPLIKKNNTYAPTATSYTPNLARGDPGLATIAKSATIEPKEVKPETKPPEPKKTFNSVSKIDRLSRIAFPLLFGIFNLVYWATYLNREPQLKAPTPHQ
T1 sequence (P18505 whole entry): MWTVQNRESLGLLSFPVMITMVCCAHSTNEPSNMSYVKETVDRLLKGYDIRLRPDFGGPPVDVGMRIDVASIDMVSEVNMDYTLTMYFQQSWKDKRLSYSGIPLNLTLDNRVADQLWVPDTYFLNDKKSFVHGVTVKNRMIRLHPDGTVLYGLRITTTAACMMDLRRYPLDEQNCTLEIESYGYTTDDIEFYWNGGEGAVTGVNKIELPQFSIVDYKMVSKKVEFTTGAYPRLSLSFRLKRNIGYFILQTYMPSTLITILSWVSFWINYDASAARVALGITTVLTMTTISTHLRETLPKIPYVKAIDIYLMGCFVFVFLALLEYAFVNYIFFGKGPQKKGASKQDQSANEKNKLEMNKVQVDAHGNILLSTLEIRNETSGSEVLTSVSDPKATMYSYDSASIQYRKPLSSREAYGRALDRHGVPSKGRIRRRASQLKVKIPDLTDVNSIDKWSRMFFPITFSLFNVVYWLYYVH
The data set is described as follows: Displacement of [3H]EBOB from recombinant Homo sapiens (human) GABA alpha1beta1 receptor. Type of data set: protein-complex assay.

Data set [6] has as its target T2, GABA A receptor alpha-1/beta-1/gamma-2 (Homo sapiens, UniProt P14867+P18505+P18507).
T2 sequence (P14867 whole entry): T1 sequence (P14867 whole entry)
T2 sequence (P18507 whole entry): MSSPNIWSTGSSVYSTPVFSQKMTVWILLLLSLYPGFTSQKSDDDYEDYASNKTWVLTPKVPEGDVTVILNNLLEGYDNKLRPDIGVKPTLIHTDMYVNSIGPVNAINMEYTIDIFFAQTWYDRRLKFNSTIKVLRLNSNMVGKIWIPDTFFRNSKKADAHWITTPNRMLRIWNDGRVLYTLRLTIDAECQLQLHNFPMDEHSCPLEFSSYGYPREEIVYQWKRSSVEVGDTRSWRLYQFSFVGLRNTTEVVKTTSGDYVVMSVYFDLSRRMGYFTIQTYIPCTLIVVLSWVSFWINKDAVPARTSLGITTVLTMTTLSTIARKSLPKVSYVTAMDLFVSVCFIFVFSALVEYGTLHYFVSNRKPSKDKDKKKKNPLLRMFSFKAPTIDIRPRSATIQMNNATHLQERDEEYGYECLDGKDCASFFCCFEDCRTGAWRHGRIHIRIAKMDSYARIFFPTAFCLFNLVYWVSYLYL
T2 sequence (P18505 whole entry): T1 sequence (P18505 whole entry)
The data set is described as follows: Displacement of [3H]EBOB from recombinant Homo sapiens (human) GABA alpha1beta1gamma2 receptor. Type of data set: protein-complex assay.

Data set [7] has as its target T3, GABA-A receptor; alpha-1/beta-3/gamma-2 (Homo sapiens, UniProt P14867+P18507+P28472).
T3 sequence (P14867 whole entry): T1 sequence (P14867 whole entry)
T3 sequence (P18507 whole entry): T2 sequence (P18507 whole entry)
T3 sequence (P28472 whole entry): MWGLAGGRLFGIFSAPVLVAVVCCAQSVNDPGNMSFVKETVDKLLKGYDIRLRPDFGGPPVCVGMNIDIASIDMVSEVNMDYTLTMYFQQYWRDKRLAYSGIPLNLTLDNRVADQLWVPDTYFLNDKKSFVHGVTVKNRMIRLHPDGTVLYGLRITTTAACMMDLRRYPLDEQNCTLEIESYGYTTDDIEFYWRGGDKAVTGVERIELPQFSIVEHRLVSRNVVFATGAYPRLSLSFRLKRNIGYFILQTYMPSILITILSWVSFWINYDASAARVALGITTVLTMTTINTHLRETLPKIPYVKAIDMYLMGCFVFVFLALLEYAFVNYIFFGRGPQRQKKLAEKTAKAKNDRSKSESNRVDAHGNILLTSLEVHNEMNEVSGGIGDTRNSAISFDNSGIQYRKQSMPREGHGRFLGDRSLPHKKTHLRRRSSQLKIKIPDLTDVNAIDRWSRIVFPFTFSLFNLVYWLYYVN
In words: Displacement of [3H]EBOB from recombinant Homo sapiens (human) GABA alpha1beta3gamma2 receptor. Type of data set: protein-complex assay.

For data set [8], the target named is T4, GABA-A receptor alpha-1/beta-3 (Homo sapiens, UniProt P14867+P28472).
T4 sequence (P14867 whole entry): T1 sequence (P14867 whole entry)
T4 sequence (P28472 whole entry): T3 sequence (P28472 whole entry)
The data set is described as follows: Displacement of [3H]EBOB from recombinant Homo sapiens (human) GABA alpha1beta3 receptor.

Data set [9] addresses GABA-A receptor; alpha-6/beta-3/gamma-2 (Homo sapiens, UniProt P18507+P28472+Q16445). In words: Displacement of [3H]EBOB from recombinant Homo sapiens (human) GABA alpha6beta3gamma2 receptor. In kind it is protein-complex assay.
Data set [10] has as its target Gamma-aminobutyric acid receptor subunit alpha-6/beta-3 (Homo sapiens, UniProt P28472+Q16445). In words: Displacement of [3H]EBOB from recombinant Homo sapiens (human) GABA alpha6beta3 receptor. Type of data set: protein-complex assay.
The target of data set [11] is T5, Gamma-aminobutyric acid receptor subunit beta-3 (Homo sapiens, UniProt P28472).
T5 sequence (P28472 whole entry): T3 sequence (P28472 whole entry)
The data set is described as follows: Displacement of [3H]EBOB from recombinant Homo sapiens (human) GABA beta3 receptor.

The target in a further data set is T6, GABA receptor subunit (Musca domestica, UniProt Q75NA5).
T6 sequence (Q75NA5 whole entry): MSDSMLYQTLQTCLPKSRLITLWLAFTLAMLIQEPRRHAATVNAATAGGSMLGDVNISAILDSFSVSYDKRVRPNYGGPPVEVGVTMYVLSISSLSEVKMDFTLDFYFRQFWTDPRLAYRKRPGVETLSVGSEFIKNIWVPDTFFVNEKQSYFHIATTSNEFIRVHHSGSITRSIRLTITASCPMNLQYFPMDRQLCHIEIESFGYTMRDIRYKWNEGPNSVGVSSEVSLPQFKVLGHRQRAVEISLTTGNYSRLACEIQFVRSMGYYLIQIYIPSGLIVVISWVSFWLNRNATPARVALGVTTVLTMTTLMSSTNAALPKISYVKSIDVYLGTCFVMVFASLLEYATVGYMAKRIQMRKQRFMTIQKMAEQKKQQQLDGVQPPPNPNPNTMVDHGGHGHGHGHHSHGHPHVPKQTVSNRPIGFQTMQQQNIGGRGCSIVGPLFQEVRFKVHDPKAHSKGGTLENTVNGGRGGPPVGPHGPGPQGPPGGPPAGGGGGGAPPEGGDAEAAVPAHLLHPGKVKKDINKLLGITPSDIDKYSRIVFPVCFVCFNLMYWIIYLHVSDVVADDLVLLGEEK
The data set is described as follows: Inhibition of Musca domestica (house fly) GABA receptor.

Chain of Gamma-aminobutyric acid receptor subunit rho-1 (P24046 whole entry): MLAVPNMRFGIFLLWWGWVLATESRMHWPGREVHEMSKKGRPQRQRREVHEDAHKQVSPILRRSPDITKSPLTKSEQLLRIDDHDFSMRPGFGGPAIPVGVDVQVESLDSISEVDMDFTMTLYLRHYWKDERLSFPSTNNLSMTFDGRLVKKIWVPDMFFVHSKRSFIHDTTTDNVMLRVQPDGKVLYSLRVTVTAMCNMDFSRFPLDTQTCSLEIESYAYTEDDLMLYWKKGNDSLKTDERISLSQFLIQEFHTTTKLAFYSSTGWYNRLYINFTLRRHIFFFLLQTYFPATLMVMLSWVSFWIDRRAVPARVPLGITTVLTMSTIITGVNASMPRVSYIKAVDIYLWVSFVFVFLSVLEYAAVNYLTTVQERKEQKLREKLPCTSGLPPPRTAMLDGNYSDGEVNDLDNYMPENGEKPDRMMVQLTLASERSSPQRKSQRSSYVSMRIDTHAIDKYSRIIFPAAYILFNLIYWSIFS
Chain of GABA-A receptor; alpha-6/beta-3/gamma-2 (Q16445 whole entry, one chain of several): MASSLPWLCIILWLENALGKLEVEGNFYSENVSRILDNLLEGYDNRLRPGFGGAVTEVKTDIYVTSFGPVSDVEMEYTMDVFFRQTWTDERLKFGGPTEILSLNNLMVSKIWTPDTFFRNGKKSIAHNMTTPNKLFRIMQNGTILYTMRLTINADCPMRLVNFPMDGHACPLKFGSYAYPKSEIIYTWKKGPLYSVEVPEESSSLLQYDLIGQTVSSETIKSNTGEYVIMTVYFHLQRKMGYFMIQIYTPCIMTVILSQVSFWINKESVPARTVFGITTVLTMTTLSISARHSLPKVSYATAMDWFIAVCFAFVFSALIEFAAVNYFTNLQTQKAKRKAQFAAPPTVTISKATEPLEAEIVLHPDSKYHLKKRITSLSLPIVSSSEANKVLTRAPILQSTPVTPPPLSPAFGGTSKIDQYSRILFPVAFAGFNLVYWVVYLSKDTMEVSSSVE
Chain of Gamma-aminobutyric acid receptor subunit alpha-6/beta-3 (Q16445 whole entry, one chain of several): as above

As for `C#Cc1ccc(C23OCC(CCC)(CO2)CO3)cc1`, the Ratio IC50 in data set [1] worked out at 5.

As usually defined, the LD50 is the dose at which mortality reaches 50%. A low value points to a more toxic substance. Usually IC50 stands for the concentration needed to halve the response being measured. Regarding `O=S1OC[C@@H]2[C@H](CO1)[C@@]1(Cl)C(Cl)=C(Cl)[C@]2(Cl)C1(Cl)Cl` (stereo partly drawn) [ALPHA-ENDOSULFAN], in [1], the Ratio IC50 is 0.73. Further, the values for the LD50 (in the data set on Musca domestica; in [2]) were 5.5 mg/kg and 10 mg/kg, respectively. Moreover, the IC50 amounted to 7.3 nM in data set [3]; 800 nM in [4]; 117 nM in data set [5]; 40 nM in data set [6]; 16 nM in data set [7]; 8.3 nM in [8]. The IC50 in data set [9] turned out to be 4.6 nM; in [10], 4 nM; in data set [11], 0.47 nM; against GABA receptor subunit, 10 nM.

On to `N#Cc1nn(-c2c(Cl)cc(C(F)(F)F)cc2Cl)c(N)c1[S+]([O-])C(F)(F)F` (stereo not given) [FIPRONIL], for which the Ratio IC50 in [1] was determined as 1090. Further, the LD50 stood at 0.25 mg/kg in the data set with Musca domestica and 32 mg/kg in [2]. Further, the IC50 in data set [3] is 2500 nM; in data set [4] it was above 10000 nM; in data set [5], 7700 nM; in [6], 2800 nM; in [7] it was 33 nM; in data set [8], 28 nM. The IC50 in data set [9] was found to be 17 nM; in [10], 3.1 nM; in data set [11], 2.4 nM; at GABA receptor subunit, 2.3 nM.

For `Cl[C@H]1[C@H](Cl)[C@@H](Cl)[C@@H](Cl)[C@H](Cl)[C@H]1Cl` [LINDANE], the Ratio IC50 in data set [1] came out at 28. Also, the results for the LD50 (in the data set with Musca domestica; in data set [2]) were 5.5 mg/kg and 40 mg/kg, respectively. In addition, the IC50 turned out to be 306 nM in data set [3]; 91 nM in data set [4]; 112 nM in data set [5]; 67 nM in [6]; 21 nM in data set [7]; 12 nM in data set [8]. Also, the 50% inhibitory concentration (IC50) in data set [9] was 4.9 nM; in data set [10], 1.3 nM; in data set [11], 0.9 nM; on GABA receptor subunit, 11 nM.
